Experiments:
Format in all cases: functional
UACC-257 = test: Cytotoxicity against Homo sapiens (human) UACC257 cells after 48 hr by sulforhodamine B assay; settings: UACC-257, 48 h
SF-268 = test: Cytotoxicity against Homo sapiens (human) SF268 cells after 48 hr by sulforhodamine B assay; settings: SF-268, 48 h; for CC50: read-out: LC50 (the source's name)
KM12 = test: Cytotoxicity against Homo sapiens (human) KM12 cells after 48 hr by sulforhodamine B assay; settings: KM12, 48 h; for CC50: read-out: LC50 (the source's name)
CCRF-CEM = test: Cytotoxicity against Homo sapiens (human) CCRF-CEM cells after 48 hr by sulforhodamine B assay; settings: for CC50: read-out: LC50 (the source's name)
MDA-MB-231 = test: Cytotoxicity against Homo sapiens (human) MDA-MB-231 cells after 48 hr by sulforhodamine B assay; settings: MDA-MB-231, 48 h
TK-10 = test: Cytotoxicity against Homo sapiens (human) TK10 cells after 48 hr by sulforhodamine B assay; settings: TK-10, 48 h; for CC50: read-out: LC50 (the source's name)
HCC 2998 = test: Cytotoxicity against Homo sapiens (human) HCC2998 cells after 48 hr by sulforhodamine B assay; settings: HCC 2998, 48 h; for CC50: read-out: LC50 (the source's name)
UACC-62 = test: Cytotoxicity against Homo sapiens (human) UACC62 cells after 48 hr by sulforhodamine B assay; settings: UACC-62, 48 h
A549 = test: Cytotoxicity against Homo sapiens (human) A549 cells after 48 hr by sulforhodamine B assay; settings: A549, 48 h; for CC50: read-out: LC50 (the source's name)
K562 = test: Cytotoxicity against Homo sapiens (human) K562 cells after 48 hr by sulforhodamine B assay; settings: K562, 48 h; for CC50: read-out: LC50 (the source's name)
[1] = Cytotoxicity against Homo sapiens (human) NCI-ADR-RES cells after 48 hr by sulforhodamine B assay
HCT-116 = test: Cytotoxicity against Homo sapiens (human) HCT116 cells after 48 hr by sulforhodamine B assay; settings: HCT-116, 48 h; for CC50: read-out: LC50 (the source's name)
COLO 205 = test: Cytotoxicity against Homo sapiens (human) COLO205 cells after 48 hr by sulforhodamine B assay; settings: COLO 205, 48 h; for CC50: read-out: LC50 (the source's name)
NCI-H522 = test: Cytotoxicity against Homo sapiens (human) NCI-H522 cells after 48 hr by sulforhodamine B assay; settings: NCI-H522, 48 h; for CC50: read-out: LC50 (the source's name)
MOLT-4 = test: Cytotoxicity against Homo sapiens (human) MOLT4 cells after 48 hr by sulforhodamine B assay; settings: MOLT-4, 48 h; for CC50: read-out: LC50 (the source's name)
HCT-15 = test: Cytotoxicity against Homo sapiens (human) HCT15 cells after 48 hr by sulforhodamine B assay; settings: HCT-15, 48 h; for CC50: read-out: LC50 (the source's name)
OVCAR-4 = test: Cytotoxicity against Homo sapiens (human) OVCAR4 cells after 48 hr by sulforhodamine B assay; settings: OVCAR-4, 48 h
NCI-H460 = test: Cytotoxicity against Homo sapiens (human) NCI-H460 cells assessed as cell growth at 10^-4 M after 48 hr by Alamar blue assay; settings: NCI-H460, 48 h, read-out: Activity
HOP-62 = test: Cytotoxicity against Homo sapiens (human) HOP62 cells after 48 hr by sulforhodamine B assay; settings: HOP-62, 48 h; for CC50: read-out: LC50 (the source's name)
Hs-578T = test: Cytotoxicity against Homo sapiens (human) Hs 578T cells after 48 hr by sulforhodamine B assay
NCI-H23 = test: Cytotoxicity against Homo sapiens (human) NCI-H23 cells after 48 hr by sulforhodamine B assay; settings: NCI-H23, 48 h; for CC50: read-out: LC50 (the source's name)
LOX IMVI = test: Cytotoxicity against Homo sapiens (human) LOXIMVI cells after 48 hr by sulforhodamine B assay
SK-OV-3 = test: Cytotoxicity against Homo sapiens (human) SKOV3 cells after 48 hr by sulforhodamine B assay; settings: SK-OV-3, 48 h
SNB-75 = test: Cytotoxicity against Homo sapiens (human) SNB75 cells after 48 hr by sulforhodamine B assay; settings: SNB-75, 48 h; for CC50: read-out: LC50 (the source's name)
MCF7 = test: Cytotoxicity against Homo sapiens (human) MCF7 cells assessed as cell growth at 10^-4 M after 48 hr by Alamar blue assay; settings: MCF7, 48 h, read-out: Activity
RPMI-8226 = test: Cytotoxicity against Homo sapiens (human) RPMI8226 cells after 48 hr by sulforhodamine B assay; settings: RPMI-8226, 48 h; for CC50: read-out: LC50 (the source's name)
RXF 393 = test: Cytotoxicity against Homo sapiens (human) RXF393 cells after 48 hr by sulforhodamine B assay; settings: RXF 393, 48 h

## Nc1nc(Cl)c2ncn(Cc3ccccc3CCl)c2n1
UACC-257
  LC50 (concentration killing 50% of cells): > 100 µM
  TGI: 38 µM
SF-268
  TGI: 14.5 µM
  CC50: 97.2 µM
KM12
  TGI: 38.9 µM
  CC50: 97.2 µM
CCRF-CEM
  TGI: > 100 µM
  CC50: > 100 µM
MDA-MB-231
  LC50: 63.1 µM
  TGI: 9.55 µM
TK-10
  TGI: 36.3 µM
  CC50: 75.9 µM
HCC 2998
  TGI: 6.61 µM
  CC50: 26.3 µM
UACC-62
  LC50 (concentration causing 50% net cell kill): 8.51 µM
  TGI: 4.37 µM
A549
  TGI: 53.7 µM
  CC50: > 100 µM
K562
  TGI: > 100 µM
  CC50: > 100 µM
[1]
  LC50 (concentration killing 50% of cells): > 100 µM
  TGI: 34.7 µM
HCT-116
  TGI: > 100 µM
  CC50: > 100 µM
COLO 205
  TGI: > 100 µM
  CC50: > 100 µM
NCI-H522
  TGI: 9.33 µM
  CC50: > 100 µM
MOLT-4
  TGI: > 100 µM
  CC50: > 100 µM
HCT-15
  TGI: 7.41 µM
  CC50: > 100 µM
OVCAR-4
  LC50 (concentration killing 50% of cells): 50.1 µM
  TGI: 6.46 µM
NCI-H460
  growth at 100 µM: 0%
HOP-62
  TGI: 61.7 µM
  CC50: > 100 µM
Hs-578T
  LC50: > 100 µM
  TGI: 77.6 µM
NCI-H23
  TGI: 8.91 µM
  CC50: 78.9 µM
LOX IMVI
  LC50: > 100 µM
  TGI: 21.9 µM
SK-OV-3
  LC50: > 100 µM
  TGI: 52.5 µM
SNB-75
  TGI: 23.5 µM
  CC50: 64.6 µM
MCF7
  growth at 100 µM: 0%
RPMI-8226
  TGI: > 100 µM
  CC50: > 100 µM

## ClCc1cccc(Cn2cnc3c(Cl)ncnc32)c1
UACC-257
  GI50: 20.4 µM
  LC50 (concentration killing 50% of cells): 67.6 µM
  TGI: 37.1 µM
SF-268
  GI50: 3.54 µM
  TGI: 15.5 µM
  CC50: > 100 µM
KM12
  GI50: 3.46 µM
  TGI: 13.5 µM
  CC50: 3.98 µM
CCRF-CEM
  GI50: 1.9 µM
  TGI: 3.89 µM
  CC50: 7.62 µM
MDA-MB-231
  GI50: 1.99 µM
  LC50: 8.12 µM
  TGI: 4.07 µM
TK-10
  GI50: 4.57 µM
  TGI: 16.2 µM
  CC50: 46.8 µM
HCC 2998
  GI50: 0.4 µM
  TGI: 1.73 µM
  CC50: 5.49 µM
UACC-62
  GI50: 1.82 µM
  LC50 (concentration causing 50% net cell kill): 6.31 µM
  TGI: 3.38 µM
A549
  GI50: 19.5 µM
  TGI: 39.8 µM
  CC50: 79.4 µM
RXF 393
  GI50: 2.29 µM
  TGI: 24 µM
RXF 393; read-out: LC50 (the source's name)
  CC50: 70.8 µM
K562
  GI50: 3.54 µM
  TGI: 15.1 µM
  CC50: 75.9 µM
[1]
  GI50: 2.45 µM
  LC50 (concentration killing 50% of cells): 37.1 µM
  TGI: 7.58 µM
HCT-116
  GI50: 1.47 µM
  TGI: 3.09 µM
  CC50: 6.31 µM
COLO 205
  GI50: 3.09 µM
  TGI: 10.5 µM
  CC50: 74.1 µM
NCI-H522
  GI50: 18.6 µM
  TGI: 66.1 µM
  CC50: > 100 µM
MOLT-4
  GI50: 15.8 µM
  TGI: 37.1 µM
  CC50: 89.1 µM
HCT-15
  GI50: 2.18 µM
  TGI: 4.67 µM
  CC50: 10 µM
OVCAR-4
  GI50: 2.34 µM
  LC50 (concentration killing 50% of cells): 26.3 µM
  TGI: 5.75 µM
HOP-62
  GI50: 2.63 µM
  TGI: 5.12 µM
  CC50: 10.2 µM
Hs-578T
  GI50: 3.46 µM
  LC50: 81.3 µM
  TGI: 11.5 µM
NCI-H23
  GI50: 1.9 µM
  TGI: 4.07 µM
  CC50: 8.71 µM
LOX IMVI
  GI50: 1.95 µM
  LC50: 27.5 µM
  TGI: 5.01 µM
SK-OV-3
  GI50: 3.31 µM
  LC50: 33.1 µM
  TGI: 10.5 µM
SNB-75
  GI50: 2.08 µM
  TGI: 4.57 µM
  CC50: 10 µM
RPMI-8226
  GI50: 3.8 µM
  TGI: 16.2 µM
  CC50: 87.1 µM

Source: ChEMBL document CHEMBL3044672, “N9- and N7-(Chloromethyl Phenymethyl)Chloropurine Derivatives from , '-Dichloroxylenes: Synthesis and Anticancer Activity” (2005)
